ChEMBL document CHEMBL3864159, “Variation of the aryl substituent on the piperazine ring within the 4-(piperazin-1-yl)-2,6-di(pyrrolidin-1-yl)pyrimidine scaffold unveils potent, non-competitive inhibitors of the inflammatory caspases” (Bioorg Med Chem Lett, 2016)

Experiments:
[1] = biological target: T1, Caspase-5 (Homo sapiens, UniProt P51878); assay: Inhibition of human recombinant DTT-activated caspase-5 expressed in Escherichia coli using Ac-WEHD-AMC as substrate preincubated for 30 mins followed by substrate addition by fluorescence assay
T1 sequence (P51878 whole entry): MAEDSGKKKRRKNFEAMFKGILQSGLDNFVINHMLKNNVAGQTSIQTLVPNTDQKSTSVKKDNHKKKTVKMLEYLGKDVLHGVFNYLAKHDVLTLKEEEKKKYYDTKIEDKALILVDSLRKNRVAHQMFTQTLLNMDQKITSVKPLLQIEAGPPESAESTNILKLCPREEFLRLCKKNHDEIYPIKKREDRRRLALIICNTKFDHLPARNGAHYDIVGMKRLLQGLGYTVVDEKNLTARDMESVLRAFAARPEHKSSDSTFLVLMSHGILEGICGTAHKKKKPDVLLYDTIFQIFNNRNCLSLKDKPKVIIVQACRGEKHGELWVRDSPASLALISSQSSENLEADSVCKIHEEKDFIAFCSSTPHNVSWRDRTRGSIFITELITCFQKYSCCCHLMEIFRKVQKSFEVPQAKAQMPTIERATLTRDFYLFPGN

[2] = biological target: T2, Caspase-1 (Homo sapiens, UniProt P29466); assay: Inhibition of human recombinant N-terminal His-tagged DTT-activated caspase-1 expressed in Escherichia coli using Ac-WEHD-AMC as substrate preincubated for 30 mins followed by substrate addition by fluorescence assay
T2 sequence (P29466 whole entry): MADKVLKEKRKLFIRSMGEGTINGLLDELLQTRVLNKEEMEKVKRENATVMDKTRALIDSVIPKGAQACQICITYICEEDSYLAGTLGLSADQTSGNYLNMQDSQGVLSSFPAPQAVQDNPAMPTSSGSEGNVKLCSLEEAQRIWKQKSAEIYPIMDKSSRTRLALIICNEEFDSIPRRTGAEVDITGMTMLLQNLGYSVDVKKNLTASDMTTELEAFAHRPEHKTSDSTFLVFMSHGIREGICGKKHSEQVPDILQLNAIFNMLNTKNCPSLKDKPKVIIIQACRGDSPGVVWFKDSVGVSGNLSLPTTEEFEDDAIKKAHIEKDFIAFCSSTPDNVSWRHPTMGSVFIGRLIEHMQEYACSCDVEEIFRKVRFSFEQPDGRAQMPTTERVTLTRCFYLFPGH

[3] = biological target: T2, Caspase-1; assay: Inhibition of human recombinant DTT-activated caspase-1 expressed in Escherichia coli using WEHD-AMC as substrate after 30 mins by fluorescence assay; settings: read-out: Ki(app)
[4] = biological target: T3, Caspase-4 (Homo sapiens, UniProt P49662); assay: Inhibition of human recombinant N-terminal His-tagged DTT-activated caspase-4 expressed in Escherichia coli using Ac-LEVD-AMC as substrate preincubated for 30 mins followed by substrate addition by fluorescence assay
T3 sequence (P49662 whole entry): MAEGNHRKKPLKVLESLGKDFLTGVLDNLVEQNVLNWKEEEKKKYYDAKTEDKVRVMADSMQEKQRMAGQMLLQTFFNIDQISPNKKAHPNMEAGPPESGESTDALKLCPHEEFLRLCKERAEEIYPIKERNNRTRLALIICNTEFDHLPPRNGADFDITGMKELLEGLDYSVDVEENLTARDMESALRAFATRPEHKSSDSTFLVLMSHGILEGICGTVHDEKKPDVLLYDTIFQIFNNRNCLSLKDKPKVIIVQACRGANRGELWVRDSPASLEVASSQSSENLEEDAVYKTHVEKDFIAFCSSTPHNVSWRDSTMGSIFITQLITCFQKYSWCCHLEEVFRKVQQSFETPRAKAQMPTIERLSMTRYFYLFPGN

[5] = biological target: T1, Caspase-5; assay: Inhibition of human recombinant DTT-activated caspase-5 expressed in Escherichia coli using Ac-WEHD-AMC as substrate preincubated for 15 mins followed by substrate addition by fluorescence assay
[6] = biological target: T1, Caspase-5; assay: Inhibition of human recombinant DTT-activated caspase-5 expressed in Escherichia coli using Ac-WEHD-AMC as substrate preincubated for 45 mins followed by substrate addition by fluorescence assay

Structure (SMILES)	IC50 [1] [nM]	Ki [1] [nM]	Ki [2] [nM]	Ki [3] [nM]	IC50 [4] [nM]	Ki [4] [nM]	IC50 [2] [nM]	IC50 [5] [nM]	IC50 [6] [nM]
C[C@]12C=CC(=O)C=C1CC[C@@H]1C2=CC[C@]2(C)[C@@H](C(=O)CN3CCN(c4cc(N5CCCC5)nc(N5CCCC5)n4)CC3)CC[C@@H]12	910	210	50	50	909	337			
c1cc(CN2CCN(c3cc(N4CCCC4)nc(N4CCCC4)n3)CC2)ccn1	146	34	303		1060	393	1060		
COc1cccc(CN2CCN(c3cc(N4CCCC4)nc(N4CCCC4)n3)CC2)c1	482	111	75		746	276	262		
COc1cc(CN2CCN(c3cc(N4CCCC4)nc(N4CCCC4)n3)CC2)cc(OC)c1	149	34	49		400	148	173		
FC(F)(F)c1cc(CN2CCN(c3cc(N4CCCC4)nc(N4CCCC4)n3)CC2)cc(C(F)(F)F)c1	210	48	202		> 5000		706		
c1ccc(CCN2CCN(c3cc(N4CCCC4)nc(N4CCCC4)n3)CC2)cc1	71	16	16		21	8	56		
c1c(N2CCCC2)nc(N2CCCC2)nc1N1CCN(CC2CCCCC2)CC1	254	59	27		826	306	95		
c1ccc(CN2CCN(c3cc(N4CCCC4)nc(N4CCCC4)n3)CC2)cc1	178	41	200		> 5000		700		
FC(F)(F)c1ccc(CN2CCN(c3cc(N4CCCC4)nc(N4CCCC4)n3)CC2)cc1	586	135	183		1520	563	639		
c1c(N2CCCC2)nc(N2CCCC2)nc1N1CCNCC1	205	47	130		560	207	455		
O=[N+]([O-])c1ccccc1CN1CCN(c2cc(N3CCCC3)nc(N3CCCC3)n2)CC1	105	24	227		721	267	796		
O=[N+]([O-])c1ccc(CN2CCN(c3cc(N4CCCC4)nc(N4CCCC4)n3)CC2)cc1	430	99	129		580	215	450		
c1cncc(CN2CCN(c3cc(N4CCCC4)nc(N4CCCC4)n3)CC2)c1	254	59	534		2350	870	1870	2560	155
O=C(c1ccccc1)c1ccc(CN2CCN(c3cc(N4CCCC4)nc(N4CCCC4)n3)CC2)cc1	123	28	59		320	119	205		
